Measured values reported in patent US12599136B2, “Substituted isophthalic acid diamides and their use as herbicides” (Bayer Aktiengesellschaft, priority 2020, dated 2026).

How the values were obtained:
Type in all cases: in vivo
[1] = tested on: Avena fatua; assay: Post-emergence herbicidal action against AVEFA; details: visual assessment about 3 weeks after treatment
Procedure, shortened: (§1)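 Weeds in sandy loam soil received a post-emergence spray at the one-leaf stage. Compounds were applied as WP or EC in water, 600 to 800 l/ha, with 0.2% wetting agent. Activity in % was judged visually after roughly 3 weeks against untreated plants.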

[2] = tested on: Lolium rigidum; assay: Post-emergence herbicidal action against LOLRI
Procedure: Seeds of monocotyledonous and dicotyledonous weed and crop plants are laid out in sandy loam soil in wood-fiber pots, covered with soil and cultivated in a greenhouse under good growth conditions. 2 to 3 weeks after sowing, the test plants are treated at the one-leaf stage. The compounds of the invention, formulated in the form of wettable powders (WP) or as emulsion concentrates (EC), are then sprayed onto the green parts of the plants in the form of an aqueous suspension or emulsion at a water application rate equivalent to 600 to 800 l/ha, with addition of 0.2% wetting agent. After the test plants have been left to stand in the greenhouse under optimal growth conditions for about 3 weeks, the action of the preparations is assessed visually in comparison to untreated controls (herbicidal action in percent (%): 100% activity=the plants have died, 0% activity=like control plants). […] The tables below illustrate, in an illustrative manner, the post-emergence herbicidal action of the compounds of the invention, the herbicidal activity being stated in percent.

[3] = tested on: Abutilon theophrasti; assay: Pre-emergence herbicidal action against ABUTH; details: visual score after 3 weeks vs untreated controls
Procedure, shortened: (§2)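 Visual rating at 3 weeks vs untreated pots; 0–100% scale, 100% = plants died. Treatment: aqueous WP/EC spray onto covering soil, 600–800 l/ha, 0.2% wetter, seeds in sandy loam.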

[4] = tested on: Stellaria media; assay: Pre-emergence herbicidal action against STEME
Procedure, shortened: as §2

[5] = tested on: Amaranthus retroflexus; assay: Pre-emergence herbicidal action against AMARE; details: visual score after 3 weeks vs untreated controls
Procedure, shortened: as §2

[6] = tested on: Amaranthus retroflexus; assay: Post-emergence herbicidal action against AMARE; details: visual assessment about 3 weeks after treatment
Procedure, shortened: as §1

[7] = tested on: Lolium rigidum; assay: Pre-emergence herbicidal action against LOLRI
Procedure, shortened: as §2

[8] = tested on: Veronica persica; assay: Post-emergence herbicidal action against VERPE; details: visual assessment about 3 weeks after treatment
Procedure, shortened: as §1

[9] = tested on: Viola tricolor; assay: Pre-emergence herbicidal action against VIOTR
Procedure, shortened: as §2

[10] = tested on: Echinochloa crus-galli; assay: Post-emergence herbicidal action against ECHCG; details: visual assessment about 3 weeks after treatment
Procedure, shortened: as §1

[11] = tested on: Cyperus esculentus; assay: Pre-emergence herbicidal action against CYPES; details: visual score after 3 weeks vs untreated controls
Procedure, shortened: as §2

[12] = tested on: Viola tricolor; assay: Post-emergence herbicidal action against VIOTR; details: 80 g/ha
Procedure, shortened: as §1

[13] = tested on: Cyperus esculentus; assay: Post-emergence herbicidal action against CYPES; details: 80 g/ha, visual assessment about 3 weeks after treatment
Procedure, shortened: as §1

[14] = tested on: Veronica persica; assay: Pre-emergence herbicidal action against VERPE; details: 320 g/ha
Procedure, shortened: as §2

[15] = tested on: Abutilon theophrasti; assay: Post-emergence herbicidal action against ABUTH
Procedure, shortened: as §1

[16] = tested on: Hordeum murinum; assay: Pre-emergence herbicidal action against HORMU; details: visual score after 3 weeks vs untreated controls
Procedure, shortened: as §2

[17] = tested on: Matricaria inodora; assay: Post-emergence herbicidal action against MATIN; details: 80 g/ha, visual assessment about 3 weeks after treatment
Procedure, shortened: as §1

[18] = tested on: Setaria viridis; assay: Post-emergence herbicidal action against SETVI; details: visual assessment about 3 weeks after treatment
Procedure, shortened: as §1

[19] = tested on: Pharbitis purpurea; assay: Pre-emergence herbicidal action against PHBPU; details: 320 g/ha; visual score after 3 weeks vs untreated controls
Procedure, shortened: as §2

[20] = tested on: Echinochloa crus-galli; assay: Pre-emergence herbicidal action against ECHCG; details: 320 g/ha; visual score after 3 weeks vs untreated controls
Procedure, shortened: as §2

[21] = tested on: Polygonum convolvulus; assay: Pre-emergence herbicidal action against POLCO
Procedure, shortened: as §2

[22] = tested on: Pharbitis purpurea; assay: Post-emergence herbicidal action against PHBPU; details: visual assessment about 3 weeks after treatment
Procedure, shortened: as §1

[23] = tested on: Matricaria inodora; assay: Pre-emergence herbicidal action against MATIN; details: visual score after 3 weeks vs untreated controls
Procedure, shortened: as §2

[24] = tested on: Alopecurus myosuroides; assay: Post-emergence herbicidal action against ALOMY
Procedure, shortened: as §1

[25] = tested on: Polygonum convolvulus; assay: Post-emergence herbicidal action against POLCO; details: visual assessment about 3 weeks after treatment
Procedure, shortened: as §1

[26] = tested on: Avena fatua; assay: Pre-emergence herbicidal action against AVEFA; details: visual score after 3 weeks vs untreated controls
Procedure, shortened: as §2

[27] = tested on: Setaria viridis; assay: Pre-emergence herbicidal action against SETVI
Procedure, shortened: as §2

[28] = tested on: Alopecurus myosuroides; assay: Pre-emergence herbicidal action against ALOMY; details: visual score after 3 weeks vs untreated controls
Procedure, shortened: as §2

[29] = tested on: Stellaria media; assay: Post-emergence herbicidal action against STEME; details: visual assessment about 3 weeks after treatment
Procedure, shortened: as §1

SMILES: Cn1nnnc1NC(=O)c1ccc(C(F)(F)F)c(C(=O)N2CCCC2)c1Cl [Example 1-152]
- Post-emergence action against AVEFA in % ([1]; 20 g/ha): 90%
- Post-emergence action against AVEFA in % ([1]; 80 g/ha): 100%
- Post-emergence action against LOLRI in % ([2]; 20 g/ha): 90%
- Post-emergence action against LOLRI in % ([2]; 80 g/ha): 100%
- Pre-emergence action against ABUTH ([3]; 20 g/ha): 100%
- Pre-emergence action against ABUTH ([3]; 80 g/ha): 100%
- Pre-emergence action against ABUTH ([3]; Dosage column 320 g/ha (heading prints 3200 g/ha)): 100%
- Pre-emergence action against STEME ([4]; 20 g/ha): 90%
- Pre-emergence action against STEME ([4]; 80 g/ha): 100%
- Pre-emergence action against STEME ([4]; 320 g/ha): 100%
- Pre-emergence action against AMARE ([5]; 20 g/ha): 100%
- Pre-emergence action against AMARE ([5]; 80 g/ha): 100%
- Pre-emergence action against AMARE ([5]; 320 g/ha): 100%
- Post-emergence action against AMARE in % ([6]; 5 g/ha): 100%
- Post-emergence action against AMARE in % ([6]; 20 g/ha): 100%
- Post-emergence action against AMARE in % ([6]; 80 g/ha): 100%
- Pre-emergence action against LOLRI ([7]; 80 g/ha): 80%
- Pre-emergence action against LOLRI ([7]; 320 g/ha): 100%
- Post-emergence action against VERPE in % ([8]; 20 g/ha): 90%
- Post-emergence action against VERPE in % ([8]; 80 g/ha): 90%
- Pre-emergence action against VIOTR ([9]; 80 g/ha): 100%
- Pre-emergence action against VIOTR ([9]; 320 g/ha): 100%
- Post-emergence action against ECHCG in % ([10]; 5 g/ha): 80%
- Post-emergence action against ECHCG in % ([10]; 20 g/ha): 90%
- Post-emergence action against ECHCG in % ([10]; 80 g/ha): 100%
- Pre-emergence action against CYPES ([11]; 80 g/ha): 90%
- Pre-emergence action against CYPES ([11]; 320 g/ha): 100%
- Post-emergence action against VIOTR in % [12]: 90%
- Post-emergence action against CYPES in % [13]: 80%
- Pre-emergence action against VERPE [14]: 90%
- Post-emergence action against ABUTH ([15]; 5 g/ha): 100%
- Post-emergence action against ABUTH ([15]; 20 g/ha): 100%
- Post-emergence action against ABUTH ([15]; 80 g/ha): 100%
- Pre-emergence action against HORMU ([16]; 80 g/ha): 90%
- Pre-emergence action against HORMU ([16]; 320 g/ha): 100%
- Post-emergence action against MATIN in % [17]: 90%
- Post-emergence action against SETVI in % ([18]; 5 g/ha): 100%
- Post-emergence action against SETVI in % ([18]; 20 g/ha): 100%
- Post-emergence action against SETVI in % ([18]; 80 g/ha): 100%
- Pre-emergence action against PHBPU [19]: 80%
- Pre-emergence action against ECHCG [20]: 100%
- Pre-emergence action against POLCO ([21]; 80 g/ha): 80%
- Pre-emergence action against POLCO ([21]; 320 g/ha): 100%
- Post-emergence action against PHBPU in % ([22]; 5 g/ha): 80%
- Post-emergence action against PHBPU in % ([22]; 20 g/ha): 90%
- Post-emergence action against PHBPU in % ([22]; 80 g/ha): 90%
- Pre-emergence action against MATIN ([23]; 20 g/ha): 100%
- Pre-emergence action against MATIN ([23]; 80 g/ha): 100%
- Pre-emergence action against MATIN ([23]; 320 g/ha): 100%
- Post-emergence action against ALOMY ([24]; 20 g/ha): 80%
- Post-emergence action against ALOMY ([24]; 80 g/ha): 90%
- Post-emergence action against POLCO in % ([25]; 5 g/ha): 80%
- Post-emergence action against POLCO in % ([25]; 80 g/ha): 80%
- Pre-emergence action against AVEFA ([26]; 80 g/ha): 100%
- Pre-emergence action against AVEFA ([26]; 320 g/ha): 100%
- Pre-emergence action against SETVI ([27]; 20 g/ha): 100%
- Pre-emergence action against SETVI ([27]; 80 g/ha): 100%
- Pre-emergence action against SETVI ([27]; 320 g/ha): 100%
- Pre-emergence action against ALOMY ([28]; 20 g/ha): 80%
- Pre-emergence action against ALOMY ([28]; 80 g/ha): 90%
- Pre-emergence action against ALOMY ([28]; 320 g/ha): 100%
- Post-emergence action against STEME in % ([29]; 5 g/ha): 90%
- Post-emergence action against STEME in % ([29]; 20 g/ha): 90%
- Post-emergence action against STEME in % ([29]; 80 g/ha): 100%
